# Patent US20250074891A1 (Anaxis Pharma Pty Ltd., priority 2021, published 2025)
# Experiments:
# Conditions in all cases: Table 35
# MLKL (full length) = MLKL (full length) (Homo sapiens (Human), UniProt Q8NB16); test: KINOMEscan binding assay, MLKL (full length)
# Description: (§1) Kinase assays. For most assays, kinase-tagged T7 phage strains were grown in parallel in 24-well blocks in an E. coli host derived from the BL21 strain. E. coli were grown to log-phase and infected with T7 phage from a frozen stock (multiplicity of infection=0.4) and incubated with shaking at 32° C. until lysis (90-150 minutes).
# (§2) The Hill Slope was set to −1.
# RIP3 = RIP3 (Homo sapiens (Human), UniProt Q9Y572); test: KINOMEscan binding assay, RIP3
# Description: as §1, §2
# RIP1 = RIP1 (Homo sapiens (Human), UniProt Q13546); test: KINOMEscan binding assay, RIP1
# Chain of RIP1 (Q13546 whole entry): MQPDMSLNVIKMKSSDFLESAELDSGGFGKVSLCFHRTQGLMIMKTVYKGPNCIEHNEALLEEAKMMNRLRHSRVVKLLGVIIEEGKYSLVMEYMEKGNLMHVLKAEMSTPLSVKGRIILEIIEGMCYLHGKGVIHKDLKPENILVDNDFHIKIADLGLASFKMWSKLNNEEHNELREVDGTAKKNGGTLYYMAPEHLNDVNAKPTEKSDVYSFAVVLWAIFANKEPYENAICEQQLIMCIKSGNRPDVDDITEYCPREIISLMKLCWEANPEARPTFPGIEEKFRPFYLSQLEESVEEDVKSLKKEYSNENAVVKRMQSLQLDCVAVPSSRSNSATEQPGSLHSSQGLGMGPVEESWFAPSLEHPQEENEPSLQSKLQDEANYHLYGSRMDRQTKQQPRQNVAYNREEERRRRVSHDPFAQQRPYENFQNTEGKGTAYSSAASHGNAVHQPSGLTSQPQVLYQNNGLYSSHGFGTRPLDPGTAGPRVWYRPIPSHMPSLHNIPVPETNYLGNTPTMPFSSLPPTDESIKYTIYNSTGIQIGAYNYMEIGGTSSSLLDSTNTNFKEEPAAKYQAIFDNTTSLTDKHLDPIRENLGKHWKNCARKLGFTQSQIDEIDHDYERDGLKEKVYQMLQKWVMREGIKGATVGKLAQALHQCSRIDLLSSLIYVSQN
# Chain of RIP3 (Q9Y572 whole entry): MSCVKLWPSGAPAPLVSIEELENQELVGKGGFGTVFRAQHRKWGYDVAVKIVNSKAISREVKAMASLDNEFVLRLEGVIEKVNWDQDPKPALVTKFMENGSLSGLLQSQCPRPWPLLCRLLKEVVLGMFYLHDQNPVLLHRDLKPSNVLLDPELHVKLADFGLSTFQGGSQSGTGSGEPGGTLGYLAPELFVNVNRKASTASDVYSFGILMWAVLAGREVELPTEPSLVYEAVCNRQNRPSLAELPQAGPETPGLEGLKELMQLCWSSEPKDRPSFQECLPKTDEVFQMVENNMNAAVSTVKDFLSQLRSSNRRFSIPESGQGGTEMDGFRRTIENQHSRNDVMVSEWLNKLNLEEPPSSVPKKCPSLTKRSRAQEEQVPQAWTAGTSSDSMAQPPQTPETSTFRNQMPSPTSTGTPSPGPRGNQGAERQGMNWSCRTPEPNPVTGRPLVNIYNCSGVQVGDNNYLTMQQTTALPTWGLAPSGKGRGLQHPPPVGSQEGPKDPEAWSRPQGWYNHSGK
# Chain of MLKL (full length) (Q8NB16 whole entry): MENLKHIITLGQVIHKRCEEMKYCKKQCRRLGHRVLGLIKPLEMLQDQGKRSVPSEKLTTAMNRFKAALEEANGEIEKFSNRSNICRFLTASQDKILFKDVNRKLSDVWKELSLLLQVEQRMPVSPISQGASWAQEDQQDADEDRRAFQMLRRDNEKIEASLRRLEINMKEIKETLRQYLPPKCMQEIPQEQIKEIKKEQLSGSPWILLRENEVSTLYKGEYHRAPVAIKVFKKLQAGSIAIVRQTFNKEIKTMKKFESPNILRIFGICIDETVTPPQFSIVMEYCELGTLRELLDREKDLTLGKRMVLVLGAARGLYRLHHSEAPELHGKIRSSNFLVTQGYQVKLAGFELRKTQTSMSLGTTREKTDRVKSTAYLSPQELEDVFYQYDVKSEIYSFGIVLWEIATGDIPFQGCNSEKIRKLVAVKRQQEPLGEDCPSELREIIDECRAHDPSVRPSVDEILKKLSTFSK
Kd (MLKL (full length)) [µM],Kd (RIP3) [µM],Kd (RIP1) [µM],SMILES
< 0.01,> 30,> 30,"Cc1nn(C)cc1Nc1[nH]nc(-c2ccc(NS(=O)(=O)C(F)F)c(O[C@@H](C)c3ccc(F)cc3)c2)c1C(N)=O [Compound 270, (S)-3-(4-((difluoromethyl)sulfonamido)-3-(1-(4-fluorophenyl)ethoxy)phenyl)-5-((1,3-dimethyl-1H-pyrazol-4-yl)amino)-1H-pyrazole-4-carboxamide]"
< 0.01,> 30,> 30,"C[C@H](Oc1cc(-c2n[nH]c(Nc3cnc(C4CCOCC4)cn3)c2C(N)=O)ccc1NS(=O)(=O)C(F)F)c1ccc(F)cc1 [Compound 296, (S)-3-(4-((difluoromethyl)sulfonamido)-3-(1-(4-fluorophenyl)ethoxy)phenyl)-5-((5-(tetrahydro-2H-pyran-4-yl)pyrazin-2-yl)amino)-1H-pyrazole-4-carboxamide]"
< 0.01,> 30,> 30,"C[C@H](Oc1cc(-c2n[nH]c(Nc3cc(C4CCOCC4)on3)c2C(N)=O)ccc1NS(=O)(=O)C(F)F)c1ccc(F)cc1 [Compound 303, (S)-3-(4-((difluoromethyl)sulfonamido)-3-(1-(4-fluorophenyl)ethoxy)phenyl)-5-((5-(tetrahydro-2H-pyran-4-yl)isoxazol-3-yl)amino)-1H-pyrazole-4-carboxamide]"
< 0.01,> 30,> 30,"C[C@H](Oc1cc(-c2n[nH]c(Nc3cnn(C4CCOCC4)c3)c2C(N)=O)ccc1NS(=O)(=O)C(F)F)c1ccc(F)cc1 [Compound 306, (S)-3-(4-((difluoromethyl)sulfonamido)-3-(1-(4-fluorophenyl)ethoxy)phenyl)-5-((1-(tetrahydro-2H-pyran-4-yl)-1H-pyrazol-4-yl)amino)-1H-pyrazole-4-carboxamide]"
< 0.01,> 30,> 30,"COCCOc1cc(Nc2[nH]nc(-c3ccc(NS(=O)(=O)N(C)C)cc3)c2C(N)=O)ccn1 [Compound 221, 3-(4-((N,N-dimethylsulfamoyl)amino)phenyl)-5-((2-(2-methoxyethoxy)pyridin-4-yl)amino)-1H-pyrazole-4-carboxamide]"
< 0.01,> 30,> 30,"CCS(=O)(=O)Nc1ccc(-c2n[nH]c(Nc3ccccn3)c2C(N)=O)cc1OCc1ccc(F)cn1 [Compound 241, 3-{4-ethanesulfonamido-3-[(5-fluoropyridin-2-yl)methoxy]phenyl}-5-[(pyridin-2-yl)amino]-1H-pyrazole-4-carboxamide]"
< 0.01,> 30,> 30,"NC(=O)c1cccc(Nc2[nH]nc(-c3ccc(NS(=O)(=O)C(F)F)cc3)c2C(N)=O)n1 [Compound 257, 6-({4-carbamoyl-3-[4-(difluoromethanesulfonamido)phenyl]-1H-pyrazol-5-yl}amino)pyridine-2-carboxamide]"
< 0.01,> 30,> 30,"NC(=O)c1c(-c2ccc(NS(=O)(=O)CC(F)(F)F)c(OCc3ccc(F)c(Cl)c3)c2)n[nH]c1Nc1cnccn1 [Compound 225, 3-{3-[(3-chloro-4-fluorophenyl)methoxy]-4-(2,2,2-trifluoroethane-sulfonamido)phenyl}-5-[(pyrazin-2-yl)amino]-1H-pyrazole-4-carboxamide]"
< 0.01,> 30,> 30,"CCS(=O)(=O)Nc1ccc(-c2n[nH]c(Nc3cnccn3)c2C(N)=O)cc1OCCc1ccccc1 [Compound 210, 3-(4-(ethylsulfonamido)-3-phenethoxyphenyl)-5-(pyrazin-2-ylamino)-1H-pyrazole-4-carboxamide]"
< 0.01,> 30,> 30,"C[C@H](Oc1cc(-c2n[nH]c(Nc3cc(C4(C)COC4)on3)c2C(N)=O)ccc1NS(=O)(=O)C(F)F)c1ccc(F)cc1 [Compound 292, (S)-3-(4-((difluoromethyl)sulfonamido)-3-(1-(4-fluorophenyl)ethoxy)phenyl)-5-((5-(3-methyloxetan-3-yl)isoxazol-3-yl)amino)-1H-pyrazole-4-carboxamide]"
